Measured values published in patent US8597904B2, “Pharmaceutical compositions for the treatment of conditions responsive to proteasome inhibition” (priority 2007, dated 2013).

Columns and labels:
SK-N-SH cells = conditions: neuroblastoma (NB) cells, Coleman et al. 2006; cited from earlier work
bovine pancreas trypsin = target: T1, bovine pancreas trypsin (Bos taurus, UniProt P00760); assay: SensoLyte Green Protease Fluorometric Assay, trypsin inhibition; type: biochemical; conditions: syringolin A up to 500 μM
T1 construct: bovine pancreas trypsin (Pierce); purchased Pierce; host or cells: bovine pancreas
T1 sequence (P00760 24-246): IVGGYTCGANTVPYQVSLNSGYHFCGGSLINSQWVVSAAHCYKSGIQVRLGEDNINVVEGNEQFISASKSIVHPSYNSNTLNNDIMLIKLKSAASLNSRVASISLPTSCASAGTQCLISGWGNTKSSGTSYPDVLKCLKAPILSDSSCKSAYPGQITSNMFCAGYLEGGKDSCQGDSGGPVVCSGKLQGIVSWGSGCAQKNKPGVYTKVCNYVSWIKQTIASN
Method: To test the specificity of syringolin A inhibition of proteasome activities, bovine pancreas trypsin (Pierce) and Papaya latex papain (Sigma-Aldrich) inhibition assays with syringolin A were performed with the SensoLyte™ Green Protease Fluorometric Assay Kit (AnaSpec., San Jose, Calif., USA) according to the instructions of the manufacturer. Reaction volumes of 100 μl contained an enzyme concentration of 200 ng/ml and various amounts of test inhibitors. Protease activity was monitored at 33° C. in a FluoroCount Microplate Fluorometer (FluoroCount, Packard, Canberra, Australia) using 485 nm excitation and a 550 nm emission filters.

[1] = test system: cells colonized by powdery mildew in wheat; conditions: literature (Amrein 2004; Waspi 1998-2001); cited from earlier work
[2] = test system: NB and ovarian cancer cells; conditions: Coleman et al. 2006, cited from earlier work
[3] = target: T2, proteasome activity in SK-N-SH neuroblastoma cells (Homo sapiens, UniProt P28074); conditions: read-out: IC50 of proteasomal activity, previously determined, Groll et al. 2008; cited from earlier work
T2 construct: endogenous in cells; host or cells: SK-N-SH
T2 sequence (P28074 60-263): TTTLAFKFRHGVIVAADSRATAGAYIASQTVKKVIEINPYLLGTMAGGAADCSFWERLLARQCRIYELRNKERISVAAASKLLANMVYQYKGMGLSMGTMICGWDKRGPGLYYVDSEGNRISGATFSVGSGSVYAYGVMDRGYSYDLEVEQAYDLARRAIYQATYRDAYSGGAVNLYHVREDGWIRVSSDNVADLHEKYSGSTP

SKOV3 cells = assay: sulphorhodamine B (SRB) cell viability / proliferation assay; type: cell-based, human
Text: The mammalian cell lines used to test the effects of syringolin A were human neuroblastoma (NB) cells with either wild type p53 (line SK-N-SH, provided by the American Type Culture Collection [ATCC], Manassas, Va.; Davidoff, et al. 1992. Oncogene 7:127-133; McKenzie, et al. 1999. Clin. Cancer Res. 5:4199-4207; Tweddle, et al. 2001. Am. J. Pathol. 158:2067-2077), mutant p53 (line LAN-1, cysteine to stop codon at residue 182, provided by Dr. Robert Seeger, University of California, Los Angeles, Calif.; Davidoff, et al. 1992. Oncogene 7:127-133; Tweddle, et al. 2001. Cancer Res. 61:8-13; Tweddle, et al. 2003. […] Cells were seeded 18-24 hours before GlbA or SylA treatment and analyzed after 24 and/or 48 hours. Cell numbers were determined using a haemacytometer in the presence of trypan blue (Fisher Scientific, Pittsburgh, Pa.).
To then test the effects of syringolin A on proliferation, cells at 0.25-0.5×10^5 cells per ml were seeded in 96-well microtiter plates containing 100 μl of culture medium per well. […] Cells were incubated for 48 hours, photographed, and the viability of cells (calculated as a percentage of control cell counts) was determined using the sulphorhodamine B (SRB) assay as previously reported (Skehan, et al. 1990. J. Natl. Cancer Inst. 82:1107-1112, which is incorporated herein by reference in its entirety). […]

## CC(C)[C@H](NC(=O)N[C@H](C(=O)N[C@H]1/C=C/CCNC(=O)/C=C/[C@H](C(C)C)NC1=O)C(C)C)C(=O)O [syringolin A]
SK-N-SH cells
  reaction with Annexin V: strongly react with Annexin V
Bovine pancreas trypsin
  trypsin activity: not affected
[1]
  hypersensitive cell death: induce hypersensitive death of cells colonized by powdery mildew in wheat
[2]; read-out: IC-50 (concentration at which the cell proliferation rate is reduced to 50%)
  IC50: ~25 µM
[2]; NB cells, 25 μM, 48 hours
  cell morphology: severe morphological changes
[3]
  IC50: 1.43 µM
SKOV3 cells; SKOV3, 25 μM, no detachment or floating cells
  cell morphology: affected the cell morphology
SKOV3 cells; SKOV3, dose-dependent
  cell proliferation rate: reduced the cell proliferation rate
